According to the supplement of paper PMC13380429:

Key:
Conditions in all cases: 72 h
Caco-2 [1] = test: cell viability relative to DMSO; higher = less toxic
Calu-3 [2] = test: as above
HepG2 [3] = test: as above
U2OS [4] = test: as above
Vero E6 [5] = test: as above
Caco-2 [6] = test: relative viability EC50 (midpoint between 100% and the lowest measured viability); higher = less toxic
Calu-3 [7] = test: as above
HepG2 [8] = test: as above
U2OS [9] = test: as above
Vero E6 [10] = test: as above
Caco-2 [11] = test: drug sensitivity score (DSS) for viability; higher = more toxic; extreme values may be limits of the assay
Calu-3 [12] = test: as above
HepG2 [13] = test: as above
U2OS [14] = test: as above
Vero E6 [15] = test: as above

Row | SMILES | cell viability (Caco-2 [1]; 1 nM) [%] | cell viability (Caco-2 [1]; 10 nM) [%] | cell viability (Caco-2 [1]; 100 nM) [%] | cell viability (Caco-2 [1]; 1000 nM) [%] | cell viability (Caco-2 [1]; 10000 nM) [%] | cell viability (Calu-3 [2]; 1 nM) [%] | cell viability (Calu-3 [2]; 10 nM) [%] | cell viability (Calu-3 [2]; 100 nM) [%] | cell viability (Calu-3 [2]; 1000 nM) [%] | cell viability (Calu-3 [2]; 10000 nM) [%] | cell viability (HepG2 [3]; 1 nM) [%] | cell viability (HepG2 [3]; 10 nM) [%] | cell viability (HepG2 [3]; 100 nM) [%] | cell viability (HepG2 [3]; 1000 nM) [%] | cell viability (HepG2 [3]; 10000 nM) [%] | cell viability (U2OS [4]; 1 nM) [%] | cell viability (U2OS [4]; 10 nM) [%] | cell viability (U2OS [4]; 100 nM) [%] | cell viability (U2OS [4]; 1000 nM) [%] | cell viability (U2OS [4]; 10000 nM) [%] | cell viability (Vero E6 [5]; 1 nM) [%] | cell viability (Vero E6 [5]; 10 nM) [%] | cell viability (Vero E6 [5]; 100 nM) [%] | cell viability (Vero E6 [5]; 1000 nM) [%] | cell viability (Vero E6 [5]; 10000 nM) [%] | relative viability EC50 (Caco-2 [6]) [µM] | relative viability EC50 (Calu-3 [7]) [µM] | relative viability EC50 (HepG2 [8]) [µM] | relative viability EC50 (U2OS [9]) [µM] | relative viability EC50 (Vero E6 [10]) [µM] | drug sensitivity score (Caco-2 [11]) | drug sensitivity score (Calu-3 [12]) | drug sensitivity score (HepG2 [13]) | drug sensitivity score (U2OS [14]) | drug sensitivity score (Vero E6 [15])
1 | C=C1C[C@]23C[C@@]1(O)CC[C@H]2[C@@]12C=C[C@H](O)[C@@](C)(C(=O)O1)[C@H]2[C@@H]3C(=O)O [MD-920] | 99.9 | 85.4 | 104 | 95.1 | 90.3 | 96.1 | 106 | 108 | 105 | 91.1 | 95.5 | 107 | 94.2 | 99 | 104 | 95.1 | 96.1 | 104 | 101 | 97 | 100 | 94.6 | 86.7 | 102 | 116 | > 10 | > 10 | > 10 | > 10 | > 10 | 0 | 0 | 0 | 0 | 0
2 | CCN1C[C@H](C)n2c(c(O)c3c(=O)n(Cc4ccc(F)c(Cl)c4)nc(C(=O)NC)c32)C1=O [MK-2048] | 97.2 | 96 | 93.2 | 94.7 | 87.4 | 91.3 | 90.2 | 92.3 | 98.2 | 93.7 | 110 | 106 | 93.9 | 100 | 98.4 | 101 | 96.3 | 102 | 98.5 | 97.8 | 101 | 100 | 105 | 101 | 98 | > 10 | > 10 | > 10 | > 10 | > 10 | 0 | 0 | 0 | 0 | 0
3 | O[C@@](Cc1nc(CC2(C(F)(F)F)CC2)c[nH]1)(c1ccc(-n2cccn2)cc1)C(F)(F)F [MK-5046] | 102 | 115 | 98.8 | 97 | 88.4 | 107 | 95.3 | 105 | 110 | 87.5 | 99.5 | 101 | 104 | 94.7 | 96.6 | 96 | 96.9 | 92.8 | 96.3 | 90.8 | 97.8 | 96.7 | 98.5 | 100 | 98.2 | > 10 | > 10 | > 10 | > 10 | > 10 | 0.1 | 0 | 0 | 0 | 0
